Assay results as given in patent publication US6489299B2, “Methods for treatment of multiple sclerosis using peptide analogues at position 91 of human myelin basic protein” (Stanford University Medical Center, priority 1994, dated 2002).
Where two headings read alike, the source gives them in different places.

Tests used:
[1] = tested on: lymph node cells (LNC) reactive to MBP (87-99); test: Antigen-specific lymph node cell proliferation assay; assay type: cell-based, Lewis rat; conditions: 10 μM peptide, 3 days, [3H]-thymidine; FIG. 4
Description: FIG. 4 is a graph displaying the proliferative response of MBP-reactive lymph node cells to position 91-substituted analogues. Two different substitutions were tested. The proliferative response of lymph node cells to 10 μM of MBP (87-99), motilin, A91 or K91 was determined. Proliferation is shown as counts per minute. BKG, no peptide added; 87-99, MBP (87-99); motilin, an unrelated peptide; A91, peptide analogue with alanine at position 91; K91, peptide analogue with D-lysine at position 91.
As an alternative to the use of T cell lines as described above, draining lymph node cells from Lewis rats immunized with MBP (87-99) may be used. […] Cultures are harvested on fiberglass filters and counted in a scintillation counter. Mean CPM and the standard error of the mean are calculated from data determined in triplicate cultures. […]
For the assay, 100 μl of the lymph node suspension was added to 96-well flat-bottom wells in the presence of an equal volume of medium containing 10 μM of various peptides (including: motilin as a negative control; MBP87-99; medium only, or alanine or D-amino acid substituted at position 91). […] The plates were then harvested with a Matrix filtermate harvester (Packard) and counted using an Automatic Direct Beta Counter (Packard). Mean cpm and the standard error of the mean were calculated from triplicate wells.

[2] = tested on: MBP specific rat T cell line (NBI); test: Antigen-specific T cell line proliferation assay; assay type: cell-based; conditions: three days, [3H]-thymidine; analogues at 20-120 μM; FIG. 3
Description: FIG. 3 is a graph displaying the proliferative response of the T cell line NBI to position 91-substituted analogues. Ten different substitutions were tested. The proliferative response of NBI in response to concentrations of analogues ranging from 0 to 150 μM was determined. Proliferation is shown as counts per minute. Standard errors of the mean were less than ±10%. MBP 87-99; peptides from human myelin basic protein containing residues 87 to 99; K, lysine; R, arginine; N, asparagine; H, histidine; L, leucine; S, serine; G, glycine; k, D-lysine; E, glutamic acid; F, phenylalanine; and A, alanine.
In the direct proliferation assay, MBP (87-99) reactive T cell lines may be used as target cells. T cell lines are established from lymph nodes taken from rats injected with MBP (87-99). […] After 5 to 6 passages in this manner, the proliferative potential of the cell lines are determined. […] Cultures are harvested and incorporated counts determined. Mean CPM and standard error of the mean are calculated from triplicate cultures. […]
For this antigen-specific proliferation assay, T cell lines as established in Example 3 were used. […] Cultures were harvested on fiberglass filters and the proliferative response expressed as CPM±SD or as stimulation index (SI) (mean CPM from test cultures divided by mean CPM from control cultures).

[3] = tested on: anti MBP (87-99) T cell line L87-99; assay type: cell-based, rat; conditions: all concentrations, 10^-4 μM to 10^-2 μM analogue; APC prepulsed with 0.2 μM native peptide; FIG. 5
Description: FIG. 5 is a graph illustrating the ability of alanine-substituted analogues to antagonize T cells. […] Results are shown as stimulation index ±SE.
The second or alternative assay is a competition assay for T cell proliferation. In this assay, antigen presenting spleen cells are first irradiated and then incubated with native MBP (87-99) peptide for 2-4 hours. These cells are then washed and further cultured with T cells reactive to MBP (87-99). Various concentrations of candidate peptide analogues are included in cultures for an additional 3 days. Following this incubation period, each culture is pulsed with 1 μCi of [^3H]-thymidine for an additional 12-18 hours. Cultures are then harvested on fiberglass filters and counted as above. Mean CPM and standard error of the mean are calculated from data determined in triplicate cultures. Peptide analogues which inhibit proliferation to approximately 25% at a concentration of 50 μM or greater are suitable for further screening.
T cell antagonism was detected in a prepulsed proliferation assay as described by De Magistris et al. (Cell […]:625, 1992) with minor modifications. […] The cultures were then harvested on fiberglass filters and the proliferative response expressed as CPM±SD or as stimulation index (mean CPM from test cultures divided by mean CPM from control cultures).

[4] = tested on: EAE; test: Reversal of EAE induced by adoptive transfer of L87-99 T cells; assay type: in vivo, rat
[5] = tested on: EAE; conditions: rat, in vivo
Description: In addition, as a safety measure, but not essential to this invention, suitable peptide analogues may be tested for direct induction of EAE. As described in detail in Example 2, various amounts of peptide analogues are injected at the base of the tail of rats, and the rats examined daily for signs of EAE. A peptide analogue which is not considered to cause EAE has a mean cumulative score of less than or equal to 1 over seven days when 1 mg (5 mg/kg) in complete Freund's adjuvant is injected.
MBP peptides and analogues were dissolved in phosphate-buffered saline (PBS) and emulsified with an equal volume of incomplete Freund's adjuvant supplemented with 4 mg/ml heat-killed Mycobacterium tuberculosis H37Ra in oil (Difco Laboratories, Inc., Detroit, Mich.). Rats were immunized subcutaneously in the hind foot pads with 0.1 ml of the emulsion and were monitored for clinical signs daily by an observer blind to the treatment protocol. For intravenous injections MBP peptides and analogues were dissolved in normal saline. EAE was scored as follows: 0, clinically normal; 1, flaccid tail; 2, hind limb paralysis; 3, front and hind limb paralysis.
The ability of peptide analogues to cause EAE is assessed in vivo. Rats were injected with MBP (87-99) or (91K>A) peptide analogue as described in Example 2. Animals were monitored daily for evidence of EAE. Rats receiving MBP (87-99) had 100% incidence (18/18 rats) of EAE with a mean maximum clinical score of 2.4±0.2. In contrast, 0/12 rats receiving the peptide analogue (91k>A) had EAE.

[6] = tested on: EAE; test: Prevention of EAE by co-injection of the peptide analogue with an EAE-inducing peptide; assay type: in vivo, rat
[7] = tested on: TNF-α production from draining lymph node cells; test: TNF-α production by draining lymph node cells (ELISA); assay type: cell-based, rat; conditions: all doses greater than 20 μM; supernatant after 24 hours; FIG. 7
Description: (§1) FIG. 7 are a pair of graphs showing the amount of IFN-γ and TNF-α production from draining lymph node cells (DLNC). DLNC were stimulated with MBP (87-99) alone (●) or with the peptide analogue (91K>A) (▪).
(§2) Cytokine production in draining lymph node cells from rats injected with MBP (87-99) alone or with the peptide analogue (91K>A) was determined. IFN-γ and TNF-α production were measured.
(§3) Draining lymph node cells (10^7 cells/ml) were stimulated in vitro with different concentrations of MBP (87-99) or peptide analogue. Supernatants were collected after 24 and 48 hours. IFN-γ was determined after 48 hours by use of a rat IFN-γ ELISA kit (GIBCO BRL). TNF-α was measured after 24 hours by ELISA kit (Genzyme Corp., Cambridge, Mass.).

[8] = tested on: IFN-γ production from draining lymph node cells; test: IFN-γ production by draining lymph node cells (ELISA); assay type: cell-based, rat; conditions: all doses; supernatant after 48 hours; FIG. 7
Description: as §1, §2, §3

[9] = as Peptide 2, co-injected with Peptide 1 MBP(68-88), ratio 1:1
[10] = as Peptide 2, co-injected with Peptide 1 MBP(87-99), ratio 1:1, in complete Freund's adjuvant

For `CC[C@H](C)[C@H](NC(=O)[C@@H]1CCCN1C(=O)[C@@H](NC(=O)[C@@H](N)Cc1ccccc1)C(C)C)C(=O)N[C@@H](Cc1ccccc1)C(=O)N[C@H](C(=O)N[C@@H](Cc1ccc(O)cc1)C(=O)NCC(=O)N[C@@H](CCC(=O)O)C(=O)N[C@@H](CC(C)C)C(=O)N[C@@H](CCC(N)=O)C(=O)N[C@@H](CCCNC(=N)N)C(=O)N[C@@H](CCSC)C(=O)N[C@@H](CCC(N)=O)C(=O)N[C@@H](CCC(=O)O)C(=O)N[C@@H](CCCCN)C(=O)N[C@@H](CCC(=O)O)C(=O)N[C@@H](CCCNC(=N)N)C(=O)N[C@@H](CC(N)=O)C(=O)N[C@@H](CCCCN)C(=O)NCC(=O)N[C@@H](CCC(N)=O)C(=O)O)[C@@H](C)O` [motilin, reference compound], the “proliferative response of MBP (87-99)-reactive lymph node cells (in words)” value [1] was “failed to respond as well” and the “proliferation of the MBP specific rat T cell line (in words)” value [2] was “does not stimulate proliferation at any dose”.

For `CC[C@H](C)[C@H](NC(=O)[C@H](CC(N)=O)NC(=O)[C@H](C)NC(=O)[C@H](Cc1ccccc1)NC(=O)[C@H](Cc1ccccc1)NC(=O)[C@H](Cc1c[nH]cn1)NC(=O)[C@@H](N)C(C)C)C(=O)N[C@H](C(=O)N[C@H](C(=O)N1CCC[C@H]1C(=O)N[C@@H](CCCNC(=N)N)C(=O)N[C@H](C(=O)N1CCC[C@H]1C(=O)O)[C@@H](C)O)[C@@H](C)O)C(C)C` [91K>A], the “proliferative response of MBP (87-99)-reactive lymph node cells (in words)” value [1] was “failed to respond as well”, the “antagonism of the response of L87-99 to native peptide (in words)” value [3] was “effectively antagonize” and the “time to complete remission” value ([4]; after single injection (2 mg/ml) of soluble analogue) was at most 36 h. For the same molecule, the “rats going into complete remission without further signs of paralysis” value ([4]; single injection (2 mg/ml) of soluble analogue to rats with hind limb paralysis, 5 days after 10^7 L87-99 T cells, p<0.015) was “six out of six”, the “EAE Incidence” value [5] was 0/12 and the “EAE Mean Maximum Clinical Score” value [5] was 0. For the same molecule, the “incidence of EAE (rats with EAE / rats injected)” value [5] was 0/12, the “EAE Incidence” value [6, 9] was 6/6 and the “EAE Mean Maximum Clinical Score” value [6, 9] was 3 ± 0. For the same molecule, the “EAE Incidence” value [6, 10] was 0/12, the “EAE Mean Maximum Clinical Score” value [6, 10] was 0 and the “inhibition of induction of EAE by MBP (68-88) (in words)” value ([6]; co-immunization) was “not inhibit induction of EAE”. For the same molecule, the “inhibition of induction of EAE by MBP (87-99) (in words)” value ([6]; co-immunization) was “could specifically inhibit induction of EAE”, the “TNF-α production (in words)” value [7] was “marked decrease in cytokine production” and the “IFN-γ production (in words)” value [8] was “marked decrease in cytokine production”.
